Measurements published in patent US9932353B2, “Imidazopyrimidine macrocycles as inhibitors of human immunodeficiency virus replication” (VIIV HEALTHCARE UK (NO. 5) LIMITED, priority 2014, dated 2018).
Read-outs that look alike come from different tables or passages of the source.

System: recombinant NL-RLuc virus (HIV NL4-3 with Renilla Luciferase) in MT-2 cells
Assay: Inhibition of HIV replication (NL-RLuc virus in MT-2 cells, luciferase readout)
Format: cell-based
Text: Inhibition of HIV Replication:
A recombinant NL-RLuc proviral clone was constructed in which a section of the nef gene from NL4-3 was replaced with the Renilla Luciferase gene. This virus is fully infectious and can undergo multiple cycles of replication in cell culture. In addition, the luciferous reporter provides a simple and easy method for quantitating the extent of virus growth and consequently, the antiviral activity of test compounds. The plasmid pNLRLuc contains the proviral NL-Rluc DNA cloned into pUC18 at the PvuII site. The NL-RLuc virus was prepared by transfection of 293T cells with the plasmid pNLRLuc. Transfections were performed using the LipofectAMINE PLUS kit from Invitrogen (Carlsbad, Calif.) according to the manufacturer and the virus generated was titered in MT-2 cells. For susceptibility analyses, the titrated virus was used to infect MT-2 cells in the presence of compound, and after 5 days of incubation, cells were processed and quantitated for virus growth by the amount of expressed luciferase. Assay media was RPMI 1640 supplemented with 10% heat inactivated fetal bovine serum (FBS), 100 units/ml penicillin G/100 units/ml streptomycin, 10 mM HEPES buffer pH 7.55 and 2 mM L-glutamine. The results from at least 2 experiments were used to calculate the EC50 values. Luciferase was quantitated using the Dual Luciferase kit from Promega (Madison, Wis.). Susceptibility of viruses to compounds was determined by incubation in the presence of serial dilutions of the compound. The 50% effective concentration (EC50) was calculated by using the exponential form of the median effect equation where (Fa)=1/[1+(ED50/drug conc.)^m] (Johnson V A, Byington R T. Infectivity Assay. In Techniques in HIV Research. ed. Aldovini A, Walker B D. 71-76. New York: Stockton Press. 1990).

[1] = NL-RLuc virus, MT-2 cells, 5 days of incubation, 10% FBS, luciferase, read-out: EC50

Compound: Cc1ccc2c(c1)-c1cccc(c1)-c1cn3c(c([C@H](OC(C)(C)C)C(=O)O)c(C)nc3n1)N1CCC(C)(CC1)OCCCC[C@H](C)O2 [Example 1, (2S)-2-(tert-Butoxy)-2-[(22S)-4,17,22,28-tetramethyl-21,27-dioxa-1,5,7,34-tetraazahexacyclo[26.2.2.1^6,^9.1^10,^14.0^2,^7.0^15,^20]tetratriaconta-2,4,6(34),8,10(33),11,13,15(20),16,18-decaen-3-yl]acetic Acid]
- EC50 (MT2, 120 h): 8 nM

Compound: Cc1nc2nc3cn2c(c1[C@H](OC(C)(C)C)C(=O)O)N1CCC(C)(CC1)OCCCCC(C)Oc1ccc(F)cc1-c1cccc-3c1 (stereo partly drawn) [Example 2, (2S)-2-(tert-butoxy)-2-[(22S/R)-17-fluoro-4,22,28-trimethyl-21,27-dioxa-1,5,7,34-tetraazahexacyclo[26.2.2.1^6,^9.1^10,^14.0^2,^7.0^15,^20]tetratriaconta-2,4,6(34),8,10(33),11,13,15(20),16,18-decaen-3-yl]acetic Acid]
- EC50 [1]: 8 nM

Compound: (2S)-2-(tert-butoxy)-2-[(22S/R)-17-fluoro-4,22,28-trimethyl-21,27-dioxa-1,5,7,34-tetraazahexacyclo[26.2.2.1^6,^9.1^10,^14.0^2,^7.0^15,^20]tetratriaconta-2,4,6(34),8,10(33),11,13,15(20),16,18-decaen-3-yl]acetic Acid [Example 3]
- EC50 [1]: 77 nM
